Test results: paper PMC13210772, “Dual FLT3/MAPK14 Proteolysis-Targeting Chimera (PROTAC) Induces Potent Acute Myeloid Leukemia Cell Death” (Pharmaceuticals, 2026)

Assays:
Assay in all cases: NanoBRET CELLinib128
Format in all cases: binding
BRSK1 = target: T1, BRSK1 (Homo sapiens, UniProt Q8TDC3); conditions: 100% no effect, 0% complete tracer displacement, read-out: Tracer bound
T1 construct: Full-length kinase ORF (Promega, Madison, WI, USA) cloned in frame with a NanoLuc-vector was transfected into HEK293T cells; host or cells: HEK293T
Protocol: (§1) To get an impression about the binding strength of the PROTAC MA191 and the reference inhibitor MA68 to other kinases besides FLT3-ITD the binding on a kinase panel of further 128 representative protein kinases at 1 μM concentration was tested using the NanoBRET^TM cellular target engagement assay (CELLinib128 assay, CELLinib GmbH, Frankfurt, Germany). […] In none of the 128 kinases MA191 was able to displace the tracer (inhibitor) used by more than 50%, Table S1, Supplementary Information).
(§2) The CELLinib128 assay was performed by CELLinib GmbH, Frankfurt (Germany) as described previously. In brief: Full-length kinase ORF (Promega, Madison, WI, USA) cloned in frame with a NanoLuc-vector was transfected into HEK293T cells in Opti-MEM without phenol red (Life Technologies, Carlsbad, CA, USA) at a density of 2 × 10^5 cells/mL using FuGENE HD (Promega, E2312) and proteins were allowed to express for 20 h. For CDKs, where indicated below, an excess of an activator without an NLuc-fusion was cotransfected. […] The system was allowed to equilibrate at 37 °C for 2 h and 5% CO2 prior to BRET measurements. For PKCs, a chemical activator PMA was added in a final concentration of 1 µM was added together with test compounds and tracers (Promega, V1171). To measure BRET, NanoBRET^TM NanoGlo substrate + extracellular NanoLuc inhibitor (Promega, N2160) were added as per the manufacturer’s protocol, and filtered luminescence was measured (450 nm BP filter (donor) and 610 nm LP filter (acceptor)). For the 1-shot test compounds, data were normalized to the tracer control and the background control or control compound plateau and an average and SD were calculated. […] For the control compounds competitive displacement data were normalized to the tracer Ctrl and the background Ctrl and then plotted and fitted using GraphPad Prism 10 software using a normalized 3-parameter curve fit with the following equation: Y = 100/(1 + 10^X−LogIC50).

PRKCD-PMA = target: T2, PRKCD-PMA (Homo sapiens, UniProt Q05655); conditions: 100% no effect, 0% complete tracer displacement, read-out: Tracer bound
T2 construct: Full-length kinase ORF (Promega, Madison, WI, USA) cloned in frame with a NanoLuc-vector was transfected into HEK293T cells; host or cells: HEK293T
Protocol: as §1, §2

SNRK = target: T3, SNRK (Homo sapiens, UniProt Q9NRH2); conditions: 100% no effect, 0% complete tracer displacement, read-out: Tracer bound
T3 construct: Full-length kinase ORF (Promega, Madison, WI, USA) cloned in frame with a NanoLuc-vector was transfected into HEK293T cells; host or cells: HEK293T
Protocol: as §1, §2

IRAK4 = target: T4, IRAK4 (Homo sapiens, UniProt Q9NWZ3); conditions: 1 µM; 100% no effect, 0% complete tracer displacement
T4 construct: Full-length kinase ORF (Promega, Madison, WI, USA) cloned in frame with a NanoLuc-vector was transfected into HEK293T cells; host or cells: HEK293T
Protocol: as §1, §2

TEK = target: T5, TEK (Homo sapiens, UniProt Q02763); conditions: 100% no effect, 0% complete tracer displacement, read-out: Tracer bound
T5 construct: Full-length kinase ORF (Promega, Madison, WI, USA) cloned in frame with a NanoLuc-vector was transfected into HEK293T cells; host or cells: HEK293T
Protocol: as §1, §2

MAP4K2 = target: T6, MAP4K2 (Homo sapiens, UniProt Q12851); conditions: 100% no effect, 0% complete tracer displacement, read-out: Tracer bound
T6 construct: Full-length kinase ORF (Promega, Madison, WI, USA) cloned in frame with a NanoLuc-vector was transfected into HEK293T cells; host or cells: HEK293T
Protocol: as §1, §2

CDK17-CCNY = target: T7, CDK17-CCNY (Homo sapiens, UniProt Q00537); conditions: 100% no effect, 0% complete tracer displacement, read-out: Tracer bound
T7 construct: Full-length kinase ORF (Promega, Madison, WI, USA) cloned in frame with a NanoLuc-vector was transfected into HEK293T cells; host or cells: HEK293T
Protocol: as §1, §2

ULK3v1 = target: T8, ULK3v1 (Homo sapiens, UniProt Q6PHR2); conditions: 1 µM; 100% no effect, 0% complete tracer displacement
T8 construct: Full-length kinase ORF (Promega, Madison, WI, USA) cloned in frame with a NanoLuc-vector; host or cells: HEK293T
Protocol: as §1, §2

STK4 = target: T9, STK4 (Homo sapiens, UniProt Q13043); conditions: 1 µM; 100% no effect, 0% complete tracer displacement
T9 construct: Full-length kinase ORF (Promega, Madison, WI, USA) cloned in frame with a NanoLuc-vector was transfected into HEK293T cells; host or cells: HEK293T
Protocol: as §1, §2

IRAK3 = target: T10, IRAK3 (Homo sapiens, UniProt Q9Y616); conditions: 100% no effect, 0% complete tracer displacement, read-out: Tracer bound
T10 construct: Full-length kinase ORF (Promega, Madison, WI, USA) cloned in frame with a NanoLuc-vector was transfected into HEK293T cells; host or cells: HEK293T
Protocol: as §1, §2

CDK14-CCNY = target: T11, CDK14-CCNY (Homo sapiens, UniProt O94921); conditions: 1 µM; 100% no effect, 0% complete tracer displacement
T11 construct: Full-length kinase ORF (Promega, Madison, WI, USA) cloned in frame with a NanoLuc-vector was transfected into HEK293T cells; host or cells: HEK293T
Protocol: as §1, §2

CDK18-CCNY = target: T12, CDK18-CCNY (Homo sapiens, UniProt Q07002); conditions: 100% no effect, 0% complete tracer displacement, read-out: Tracer bound
T12 construct: Full-length kinase ORF (Promega, Madison, WI, USA) cloned in frame with a NanoLuc-vector was transfected into HEK293T cells; host or cells: HEK293T
Protocol: as §1, §2

MAP3K11 = target: T13, MAP3K11 (Homo sapiens, UniProt Q16584); conditions: 1 µM; 100% no effect, 0% complete tracer displacement
T13 construct: Full-length kinase ORF (Promega, Madison, WI, USA) cloned in frame with a NanoLuc-vector was transfected into HEK293T cells; host or cells: HEK293T
Protocol: as §1, §2

PRKCQ-PMA = target: T14, PRKCQ-PMA (Homo sapiens, UniProt Q04759); conditions: 100% no effect, 0% complete tracer displacement, read-out: Tracer bound
T14 construct: Full-length kinase ORF (Promega, Madison, WI, USA) cloned in frame with a NanoLuc-vector was transfected into HEK293T cells; host or cells: HEK293T
Protocol: as §1, §2

PRKCE-PMA = target: T15, PRKCE-PMA (Homo sapiens, UniProt Q02156); conditions: 100% no effect, 0% complete tracer displacement, read-out: Tracer bound
T15 construct: Full-length kinase ORF (Promega, Madison, WI, USA) cloned in frame with a NanoLuc-vector was transfected into HEK293T cells; host or cells: HEK293T
Protocol: as §1, §2

CDK5-CDK5R2 = target: T16, CDK5-CDK5R2 (Homo sapiens, UniProt Q00535); conditions: 100% no effect, 0% complete tracer displacement, read-out: Tracer bound
T16 construct: Full-length kinase ORF (Promega, Madison, WI, USA) cloned in frame with a NanoLuc-vector was transfected into HEK293T cells; host or cells: HEK293T
Protocol: as §1, §2

MAP3K9 = target: T17, MAP3K9 (Homo sapiens, UniProt P80192); conditions: 100% no effect, 0% complete tracer displacement, read-out: Tracer bound
T17 construct: Full-length kinase ORF (Promega, Madison, WI, USA) cloned in frame with a NanoLuc-vector was transfected into HEK293T cells; host or cells: HEK293T
Protocol: as §1, §2

RIOK2 = target: T18, RIOK2 (Homo sapiens, UniProt Q9BVS4); conditions: 100% no effect, 0% complete tracer displacement, read-out: Tracer bound
T18 construct: Full-length kinase ORF (Promega, Madison, WI, USA) cloned in frame with a NanoLuc-vector was transfected into HEK293T cells; host or cells: HEK293T
Protocol: as §1, §2

CSNK1G2 = target: T19, CSNK1G2 (Homo sapiens, UniProt P78368); conditions: 1 µM; 100% no effect, 0% complete tracer displacement
T19 construct: Full-length kinase ORF (Promega, Madison, WI, USA) cloned in frame with a NanoLuc-vector was transfected into HEK293T cells; host or cells: HEK293T
Protocol: as §1, §2

AURKC = target: T20, AURKC (Homo sapiens, UniProt Q9UQB9); conditions: 100% no effect, 0% complete tracer displacement, read-out: Tracer bound
T20 construct: Full-length kinase ORF (Promega, Madison, WI, USA) cloned in frame with a NanoLuc-vector was transfected into HEK293T cells; host or cells: HEK293T
Protocol: as §1, §2

NEK1 = target: T21, NEK1 (Homo sapiens, UniProt Q96PY6); conditions: 100% no effect, 0% complete tracer displacement, read-out: Tracer bound
T21 construct: Full-length kinase ORF (Promega, Madison, WI, USA) cloned in frame with a NanoLuc-vector was transfected into HEK293T cells; host or cells: HEK293T
Protocol: as §1, §2

RPS6KA3 = target: T22, RPS6KA3 (Homo sapiens, UniProt P51812); conditions: 100% no effect, 0% complete tracer displacement, read-out: Tracer bound
T22 construct: Full-length kinase ORF (Promega, Madison, WI, USA) cloned in frame with a NanoLuc-vector was transfected into HEK293T cells; host or cells: HEK293T
Protocol: as §1, §2

PAK6 = target: T23, PAK6 (Homo sapiens, UniProt Q9NQU5); conditions: 100% no effect, 0% complete tracer displacement, read-out: Tracer bound
T23 construct: Full-length kinase ORF (Promega, Madison, WI, USA) cloned in frame with a NanoLuc-vector was transfected into HEK293T cells; host or cells: HEK293T
Protocol: as §1, §2

CDK3-CCNE1 = target: T24, CDK3-CCNE1 (Homo sapiens, UniProt Q00526); conditions: 1 µM; 100% no effect, 0% complete tracer displacement
T24 construct: Full-length kinase ORF (Promega, Madison, WI, USA) cloned in frame with a NanoLuc-vector was transfected into HEK293T cells; host or cells: HEK293T
Protocol: as §1, §2

TNK1 = target: T25, TNK1 (Homo sapiens, UniProt Q13470); conditions: 100% no effect, 0% complete tracer displacement, read-out: Tracer bound
T25 construct: Full-length kinase ORF (Promega, Madison, WI, USA) cloned in frame with a NanoLuc-vector; host or cells: HEK293T
Protocol: as §1, §2

AURKB = target: T26, AURKB (Homo sapiens, UniProt Q96GD4); conditions: 100% no effect, 0% complete tracer displacement, read-out: Tracer bound
T26 construct: Full-length kinase ORF (Promega, Madison, WI, USA) cloned in frame with a NanoLuc-vector was transfected into HEK293T cells; host or cells: HEK293T
Protocol: as §1, §2

SIK3 = target: T27, SIK3 (Homo sapiens, UniProt Q9Y2K2); conditions: 1 µM; 100% no effect, 0% complete tracer displacement
T27 construct: Full-length kinase ORF (Promega, Madison, WI, USA) cloned in frame with a NanoLuc-vector was transfected into HEK293T cells; host or cells: HEK293T
Protocol: as §1, §2

AURKA = target: T28, AURKA (Homo sapiens, UniProt O14965); conditions: 100% no effect, 0% complete tracer displacement, read-out: Tracer bound
T28 construct: Full-length kinase ORF (Promega, Madison, WI, USA) cloned in frame with a NanoLuc-vector was transfected into HEK293T cells; host or cells: HEK293T
Protocol: as §1, §2

ERN1 = target: T29, ERN1 (Homo sapiens, UniProt O75460); conditions: 100% no effect, 0% complete tracer displacement, read-out: Tracer bound
T29 construct: Full-length kinase ORF (Promega, Madison, WI, USA) cloned in frame with a NanoLuc-vector was transfected into HEK293T cells; host or cells: HEK293T
Protocol: as §1, §2

PAK4 = target: T30, PAK4 (Homo sapiens, UniProt O96013); conditions: 100% no effect, 0% complete tracer displacement, read-out: Tracer bound
T30 construct: Full-length kinase ORF (Promega, Madison, WI, USA) cloned in frame with a NanoLuc-vector was transfected into HEK293T cells; host or cells: HEK293T
Protocol: as §1, §2

T27 sequence (Q9Y2K2 whole entry): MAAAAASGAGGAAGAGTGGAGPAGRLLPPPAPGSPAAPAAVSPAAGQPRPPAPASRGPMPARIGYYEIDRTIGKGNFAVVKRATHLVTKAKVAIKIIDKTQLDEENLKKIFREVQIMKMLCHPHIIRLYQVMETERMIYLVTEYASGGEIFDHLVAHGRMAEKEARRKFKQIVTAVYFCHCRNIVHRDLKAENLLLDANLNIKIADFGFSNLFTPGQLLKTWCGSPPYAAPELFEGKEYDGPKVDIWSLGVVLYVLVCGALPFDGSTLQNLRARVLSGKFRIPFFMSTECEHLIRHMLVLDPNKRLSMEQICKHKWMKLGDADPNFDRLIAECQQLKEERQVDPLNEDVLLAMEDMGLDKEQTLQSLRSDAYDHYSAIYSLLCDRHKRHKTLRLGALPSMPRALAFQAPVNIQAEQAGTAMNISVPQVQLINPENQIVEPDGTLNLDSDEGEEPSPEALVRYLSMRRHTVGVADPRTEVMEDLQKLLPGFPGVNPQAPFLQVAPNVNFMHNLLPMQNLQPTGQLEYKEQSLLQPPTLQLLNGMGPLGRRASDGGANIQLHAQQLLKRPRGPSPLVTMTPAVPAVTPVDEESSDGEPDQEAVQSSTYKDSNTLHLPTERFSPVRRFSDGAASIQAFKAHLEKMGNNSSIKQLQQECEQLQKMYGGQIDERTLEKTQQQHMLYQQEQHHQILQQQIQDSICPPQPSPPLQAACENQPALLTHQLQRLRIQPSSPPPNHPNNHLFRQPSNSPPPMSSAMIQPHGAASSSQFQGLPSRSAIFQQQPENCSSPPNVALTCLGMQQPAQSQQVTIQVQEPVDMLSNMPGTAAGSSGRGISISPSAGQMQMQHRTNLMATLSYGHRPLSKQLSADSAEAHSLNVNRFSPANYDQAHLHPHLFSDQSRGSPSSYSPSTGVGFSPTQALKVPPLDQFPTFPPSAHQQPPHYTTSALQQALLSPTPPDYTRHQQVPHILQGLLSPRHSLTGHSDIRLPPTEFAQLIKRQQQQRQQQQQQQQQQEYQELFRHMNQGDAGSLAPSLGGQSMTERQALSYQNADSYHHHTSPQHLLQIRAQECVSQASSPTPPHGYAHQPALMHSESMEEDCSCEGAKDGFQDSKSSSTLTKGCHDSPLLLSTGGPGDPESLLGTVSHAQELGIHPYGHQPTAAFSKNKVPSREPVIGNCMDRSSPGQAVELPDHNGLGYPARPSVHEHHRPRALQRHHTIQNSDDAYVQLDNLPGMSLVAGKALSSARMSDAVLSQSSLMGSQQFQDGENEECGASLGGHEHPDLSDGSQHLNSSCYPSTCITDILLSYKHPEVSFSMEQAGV
T30 sequence (O96013 whole entry): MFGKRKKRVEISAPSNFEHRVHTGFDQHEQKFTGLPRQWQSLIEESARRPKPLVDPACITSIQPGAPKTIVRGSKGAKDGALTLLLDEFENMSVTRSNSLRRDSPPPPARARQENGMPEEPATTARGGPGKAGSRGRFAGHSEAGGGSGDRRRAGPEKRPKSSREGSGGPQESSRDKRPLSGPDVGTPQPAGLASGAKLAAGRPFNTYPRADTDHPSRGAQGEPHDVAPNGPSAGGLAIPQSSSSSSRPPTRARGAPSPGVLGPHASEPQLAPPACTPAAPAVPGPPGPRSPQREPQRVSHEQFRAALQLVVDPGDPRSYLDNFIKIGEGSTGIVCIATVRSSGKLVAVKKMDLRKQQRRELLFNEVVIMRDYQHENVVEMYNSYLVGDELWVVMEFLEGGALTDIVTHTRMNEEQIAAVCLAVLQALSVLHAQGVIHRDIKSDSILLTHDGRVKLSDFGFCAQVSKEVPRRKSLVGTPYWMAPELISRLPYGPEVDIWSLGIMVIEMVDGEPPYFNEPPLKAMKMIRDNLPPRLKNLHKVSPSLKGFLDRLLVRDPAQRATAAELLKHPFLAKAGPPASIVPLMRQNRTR
T8 sequence (Q6PHR2 whole entry): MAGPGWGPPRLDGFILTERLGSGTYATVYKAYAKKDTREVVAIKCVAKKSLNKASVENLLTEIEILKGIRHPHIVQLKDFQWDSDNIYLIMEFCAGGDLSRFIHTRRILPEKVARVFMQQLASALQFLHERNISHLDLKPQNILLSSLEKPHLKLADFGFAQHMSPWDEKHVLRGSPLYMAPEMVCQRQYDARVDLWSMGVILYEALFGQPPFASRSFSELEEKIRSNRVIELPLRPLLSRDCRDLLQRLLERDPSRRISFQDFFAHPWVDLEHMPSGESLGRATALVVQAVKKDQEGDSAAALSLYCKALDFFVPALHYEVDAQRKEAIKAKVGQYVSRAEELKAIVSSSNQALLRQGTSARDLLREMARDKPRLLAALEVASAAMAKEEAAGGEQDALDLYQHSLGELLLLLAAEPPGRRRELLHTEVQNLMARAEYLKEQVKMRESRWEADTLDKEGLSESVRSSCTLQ
T4 sequence (Q9NWZ3 whole entry): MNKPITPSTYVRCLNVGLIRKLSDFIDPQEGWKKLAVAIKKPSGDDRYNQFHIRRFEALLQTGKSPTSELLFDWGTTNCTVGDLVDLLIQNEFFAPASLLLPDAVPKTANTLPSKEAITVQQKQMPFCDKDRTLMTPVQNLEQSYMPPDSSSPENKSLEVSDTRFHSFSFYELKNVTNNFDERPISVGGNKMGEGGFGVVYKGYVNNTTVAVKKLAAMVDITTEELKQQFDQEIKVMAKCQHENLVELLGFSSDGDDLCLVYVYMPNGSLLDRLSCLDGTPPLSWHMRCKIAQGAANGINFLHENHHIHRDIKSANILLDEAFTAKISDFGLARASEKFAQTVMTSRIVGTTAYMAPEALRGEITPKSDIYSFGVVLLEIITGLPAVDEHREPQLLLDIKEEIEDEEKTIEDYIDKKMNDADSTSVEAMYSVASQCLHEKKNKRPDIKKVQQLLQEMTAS
T9 sequence (Q13043 whole entry): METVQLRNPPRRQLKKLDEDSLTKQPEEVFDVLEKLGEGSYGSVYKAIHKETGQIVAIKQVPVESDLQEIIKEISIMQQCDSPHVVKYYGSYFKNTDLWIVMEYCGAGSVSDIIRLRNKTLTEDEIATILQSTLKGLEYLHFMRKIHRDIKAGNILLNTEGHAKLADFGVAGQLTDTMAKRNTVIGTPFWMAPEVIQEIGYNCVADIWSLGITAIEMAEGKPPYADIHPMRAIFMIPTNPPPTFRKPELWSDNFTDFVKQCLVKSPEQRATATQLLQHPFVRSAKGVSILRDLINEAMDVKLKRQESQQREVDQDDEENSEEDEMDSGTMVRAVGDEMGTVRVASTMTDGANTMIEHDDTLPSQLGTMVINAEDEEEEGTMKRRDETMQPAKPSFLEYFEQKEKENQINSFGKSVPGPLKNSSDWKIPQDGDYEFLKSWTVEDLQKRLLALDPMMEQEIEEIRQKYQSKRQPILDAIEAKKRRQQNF
T10 sequence (Q9Y616 whole entry): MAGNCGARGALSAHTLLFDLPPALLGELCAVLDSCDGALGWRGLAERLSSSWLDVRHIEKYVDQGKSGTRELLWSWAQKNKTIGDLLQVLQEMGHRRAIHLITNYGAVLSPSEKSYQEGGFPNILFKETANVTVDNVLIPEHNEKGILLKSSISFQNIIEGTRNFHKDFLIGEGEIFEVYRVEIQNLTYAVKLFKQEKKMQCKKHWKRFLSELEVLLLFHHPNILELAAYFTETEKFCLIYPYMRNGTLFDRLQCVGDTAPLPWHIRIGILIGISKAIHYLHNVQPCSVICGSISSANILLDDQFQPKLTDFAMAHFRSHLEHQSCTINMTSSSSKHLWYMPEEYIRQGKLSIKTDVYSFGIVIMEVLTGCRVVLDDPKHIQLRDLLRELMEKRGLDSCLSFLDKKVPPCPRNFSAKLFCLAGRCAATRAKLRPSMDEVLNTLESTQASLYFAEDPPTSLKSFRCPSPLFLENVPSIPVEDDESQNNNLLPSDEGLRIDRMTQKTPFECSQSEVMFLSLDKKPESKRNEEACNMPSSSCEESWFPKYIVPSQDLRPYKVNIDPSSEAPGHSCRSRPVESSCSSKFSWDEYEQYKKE
T13 sequence (Q16584 whole entry): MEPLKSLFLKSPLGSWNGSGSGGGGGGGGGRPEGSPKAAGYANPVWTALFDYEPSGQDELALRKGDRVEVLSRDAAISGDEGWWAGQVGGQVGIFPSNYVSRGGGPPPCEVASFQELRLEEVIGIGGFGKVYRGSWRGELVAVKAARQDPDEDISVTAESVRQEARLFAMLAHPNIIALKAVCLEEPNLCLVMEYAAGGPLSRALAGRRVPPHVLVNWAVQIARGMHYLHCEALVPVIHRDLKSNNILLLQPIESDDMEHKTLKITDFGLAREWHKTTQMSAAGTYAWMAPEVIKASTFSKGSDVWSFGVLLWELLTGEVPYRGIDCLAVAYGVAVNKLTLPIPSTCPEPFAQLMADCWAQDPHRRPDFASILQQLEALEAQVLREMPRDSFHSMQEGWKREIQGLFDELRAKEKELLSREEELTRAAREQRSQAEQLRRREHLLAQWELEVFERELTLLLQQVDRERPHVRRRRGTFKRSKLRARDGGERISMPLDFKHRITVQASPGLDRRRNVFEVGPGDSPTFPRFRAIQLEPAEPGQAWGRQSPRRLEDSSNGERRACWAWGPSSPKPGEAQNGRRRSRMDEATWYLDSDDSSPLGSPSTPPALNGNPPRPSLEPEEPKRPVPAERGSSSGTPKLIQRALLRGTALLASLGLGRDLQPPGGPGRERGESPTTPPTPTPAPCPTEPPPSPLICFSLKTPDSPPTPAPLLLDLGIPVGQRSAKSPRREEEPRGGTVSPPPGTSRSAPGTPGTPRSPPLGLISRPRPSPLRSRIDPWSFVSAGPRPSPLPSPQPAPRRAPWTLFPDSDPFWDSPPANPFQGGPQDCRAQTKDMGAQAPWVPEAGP

- remaining activity at 1 µM (BRSK1): 106%
- remaining activity at 1 µM (PRKCD-PMA): 113%
- remaining activity at 1 µM (SNRK): 99.2%
- Tracer bound (IRAK4): 94.3%
- remaining activity at 1 µM (TEK): 12.6%
- remaining activity at 1 µM (MAP4K2): 107%
- remaining activity at 1 µM (CDK17-CCNY): 13.9%
- Tracer bound (ULK3v1): 96.1%
- Tracer bound (STK4): 98.8%
- remaining activity at 1 µM (IRAK3): 120%
- Tracer bound (CDK14-CCNY): 42.0%
- remaining activity at 1 µM (CDK18-CCNY): 28.6%
- Tracer bound (MAP3K11): 109.2%
- remaining activity at 1 µM (PRKCQ-PMA): 108%
- remaining activity at 1 µM (PRKCE-PMA): 76.2%
- remaining activity at 1 µM (CDK5-CDK5R2): 86.1%
- remaining activity at 1 µM (MAP3K9): 111%
- remaining activity at 1 µM (RIOK2): 109%
- Tracer bound (CSNK1G2): 95.1%
- remaining activity at 1 µM (AURKC): 102%
- remaining activity at 1 µM (NEK1): 110%
- remaining activity at 1 µM (RPS6KA3): 118%
- remaining activity at 1 µM (PAK6): 116%
- Tracer bound (CDK3-CCNE1): 81.0%
- remaining activity at 1 µM (TNK1): 114%
- remaining activity at 1 µM (AURKB): 76.4%
- Tracer bound (SIK3): 113.2%
- remaining activity at 1 µM (AURKA): 120%
- remaining activity at 1 µM (ERN1): 117%
- remaining activity at 1 µM (PAK4): 97.7%
SMILES: CNC(=O)c1cc(Oc2ccc(NC(=O)Nc3cc(C(C)(C)C)on3)cc2)ccn1 [MA68, reference compound]
